Calls of active or inactive are those of the source.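 How the source made its calls: active means peak inhibition of the TASK1 potassium channel above a set limit at some dose, plus a fitted dose response; inactive means no inhibition at any dose, or no fitted curve.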

The IC50 is the concentration that inhibits the measured activity by half.

Chain of Potassium channel subfamily K member 3 (Homo sapiens) (O14649 whole entry, looked up): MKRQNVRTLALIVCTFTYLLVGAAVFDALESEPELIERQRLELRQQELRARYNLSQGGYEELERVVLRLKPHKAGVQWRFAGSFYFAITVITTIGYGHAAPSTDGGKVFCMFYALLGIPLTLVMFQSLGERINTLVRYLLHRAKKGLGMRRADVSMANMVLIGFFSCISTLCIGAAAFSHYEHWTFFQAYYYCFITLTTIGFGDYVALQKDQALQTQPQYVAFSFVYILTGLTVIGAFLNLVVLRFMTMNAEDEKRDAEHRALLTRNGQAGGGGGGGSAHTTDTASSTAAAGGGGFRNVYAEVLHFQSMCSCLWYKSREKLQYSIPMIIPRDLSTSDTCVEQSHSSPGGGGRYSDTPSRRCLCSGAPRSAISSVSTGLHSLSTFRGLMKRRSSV

The first test addresses Potassium channel subfamily K member 3 (Homo sapiens) (UniProt O14649). Put plainly: inhibition of human KCNK3 channel flux – CHO cells, FluxOR thallium flux, SAR follow-up (AID 652212). The note with it: CHO-TASK1 cells, FluxOR thallium flux fluorescence.
In the case of `CC(C)Oc1ccccc1C(=O)Nc1cccc(NC(=O)c2ccccc2OC(F)(F)F)c1`, the half-maximal inhibitory concentration (IC50) is 1 nM.

For the compound `O=C(Nc1cccc(NC(=O)c2ccccc2Cl)c1)c1ccccc1`, the IC50 was 497 nM.

With `COc1ccccc1C(=O)Nc1cccc(NC(=O)c2cccc(C)c2)c1`, the concentration for half-maximal inhibition (IC50) is 4 nM.

`Cc1cccc(C(=O)Nc2cccc(NC(=O)c3ccc(Cl)cc3)c2)c1`: the IC50 was 149 nM.

As for `COc1ccccc1C(=O)Nc1cccc(NC(=O)c2ccccc2C)c1`, the IC50 was 73 nM.

Consider `CN(C)c1ccc(C(=O)Nc2cccc(NC(=O)c3ccccc3)c2)cc1`, for which the IC50 is 259 nM.

On to `O=C(Nc1cccc(NC(=O)c2cccc(C(F)(F)F)c2)c1)c1ccccc1`, for which the IC50 is 157 nM.

As for `COc1ccccc1C(=O)Nc1cccc(NC(=O)c2ccccc2OC(F)(F)F)c1`, the concentration for half-maximal inhibition (IC50) was 4 nM.

As to `Cc1cccc(C(=O)Nc2cccc(NC(=O)c3cccc(C)c3)c2)c1`, the IC50 is 30 nM.

Turning to `COc1cccc(C(=O)Nc2cccc(NC(=O)c3cccc(C)c3)c2)c1`, the half-inhibitory concentration (IC50) is 31 nM.

For the compound `O=C(Nc1cccc(NC(=O)c2ccccn2)c1)c1ccccc1`, the half-maximal inhibitory concentration (IC50) is 86 nM.

With `Cc1cccc(C(=O)Nc2cccc(NC(=O)c3ccc(N(C)C)cc3)c2)c1`, the IC50 was 145 nM.

On to `O=C(Nc1cccc(NC(=O)c2ccncc2)c1)c1ccccc1`, for which the IC50 was 249 nM.

As for `O=C(Nc1cccc(NC(=O)c2cccs2)c1)c1ccccc1`, the IC50 is 29 nM.

For the compound `COc1ccc(C(=O)Nc2cccc(NC(=O)c3cccc(C)c3)c2)cc1`, the IC50 is 1330 nM.

Turning to `COc1ccccc1C(=O)Nc1cccc(NC(=O)c2ccccc2OC)c1`, the IC50 is 10 nM.

On to `Cc1cccc(C(=O)Nc2cccc(NC(=O)c3ccccc3Cl)c2)c1`, for which the IC50 was 23 nM.

In the case of `O=C(Nc1cccc(NC(=O)c2ccc(F)cc2)c1)c1ccccc1`, the IC50 was 306 nM.

As to `Cc1cccc(C(=O)Nc2cccc(NC(=O)c3ccccc3C)c2)c1`, the IC50 is 91 nM.

On to `CCOc1ccccc1C(=O)Nc1cccc(NC(=O)c2ccccc2C(F)(F)F)c1`, for which the IC50 was 2 nM.

Consider `O=C(Nc1cccc(NC(=O)c2cccc(Cl)c2)c1)c1ccccc1`, for which the half-inhibitory concentration (IC50) is 52 nM.

For the compound `Cc1cccc(C(=O)Nc2cccc(NC(=O)c3cccc(Cl)c3)c2)c1`, the 50% inhibitory concentration (IC50) is 3 nM.

Consider `O=C(Nc1cccc(NC(=O)c2ccoc2)c1)c1ccccc1`, for which the concentration for half-maximal inhibition (IC50) is 799 nM.

On to `Cc1cccc(C(=O)Nc2cccc(NC(=O)c3ccco3)c2)c1`, for which the IC50 is 143 nM.

As to `O=C(Nc1cccc(NC(=O)C2CCCCC2)c1)c1ccccc1`, the half-inhibitory concentration (IC50) is 79 nM.

Take `CC(C)c1ccccc1C(=O)Nc1cccc(NC(=O)c2ccccc2OC(F)(F)F)c1`: the IC50 was 11 nM.

As to `COc1cccc(C(=O)Nc2cccc(NC(=O)c3ccccc3)c2)c1`, the IC50 was 327 nM.

For the compound `O=C(Nc1cccc(NC(=O)c2ccsc2)c1)c1ccccc1`, the IC50 was 162 nM.

As for `O=C(Nc1cccc(NC(=O)c2cccnc2)c1)c1ccccc1`, the half-inhibitory concentration (IC50) was 1290 nM.

`COc1ccccc1C(=O)Nc1cccc(NC(=O)c2ccccc2)c1`: the 50% inhibitory concentration (IC50) was 222 nM.

Consider `Cc1cccc(C(=O)Nc2cccc(NC(=O)c3cccc(F)c3)c2)c1`, for which the IC50 is 25 nM.

With `Cc1cccc(C(=O)Nc2cccc(NC(=O)c3ccccc3C(C)C)c2)c1`, the IC50 was 328 nM.

For the compound `CCOc1ccccc1C(=O)Nc1cccc(NC(=O)c2ccccc2OC)c1`, the IC50 is 2 nM.

For `O=C(Nc1cccc(NC(=O)c2ccccc2C(F)(F)F)c1)c1ccccc1`, the IC50 was 130 nM.

On to `COc1ccccc1C(=O)Nc1cccc(NC(=O)c2ccccc2C(C)C)c1`, for which the half-inhibitory concentration (IC50) was 7 nM.

As for `Cc1ccccc1C(=O)Nc1cccc(NC(=O)c2ccccc2)c1`, the IC50 is 104 nM.

Still in this test, the particulars now being: CHO-TASK1 cells, FluxOR thallium flux fluorescence; at 3 µM (top of the series).
`O=C(Nc1cccc(NC(=O)c2ccc(Cl)cc2)c1)c1ccccc1`: the “normalized flux ratio, lower = inhibition” value was “inactive”.

In the case of `CC(C)(C)c1ccc(C(=O)Nc2cccc(NC(=O)c3ccccc3)c2)cc1`, the “normalized flux ratio, lower = inhibition” value was “inactive”.

As to `Cc1ccc(C(=O)Nc2cccc(NC(=O)c3ccccc3)c2)cc1`, the “normalized flux ratio, lower = inhibition” value is “inactive”.

With `O=C(Nc1cccc(NC(=O)c2ccc(C(F)(F)F)cc2)c1)c1ccccc1`, the “normalized flux ratio, lower = inhibition” value was “inactive”.

Source of the values: PubChem BioAssay AID652212 (Johns Hopkins Ion Channel Center, 2013).
